Data taken from paper PMC6792352, “Limited Chemical Structural Diversity Found to Modulate Thyroid Hormone Receptor in the Tox21 Chemical Library” (Environmental Health Perspectives, 2019).
Structures can show the parent of a compound that is named as a salt. No end group written: not given here.

Experiment: in vitro
Settings: rat, gh3-tre-luc cells, AC50 (uM) modified / 1000

Point of comparison: CCC(C)c1ccc(O)cc1 (stereo not drawn) [4-(Butan-2-yl)phenol], CC50 at 24 h 61.9 µM. Against it:
- Cn1c(=O)cc(Oc2ccc(F)cc2F)c2cnc(NCC(C)(C)O)nc21 [PharmaGSID_48507] — higher, > 90 µM
- CN(C)Cc1ccccc1 [N,N-Dimethylbenzylamine] — not separable, > 50 µM
- CCCOC(=O)c1ccccc1O [Propyl salicylate] — not separable, > 50 µM
- COP(=O)(OC)SCn1c(=O)oc2cc(Cl)cnc21 [Azamethiphos] — higher, > 90 µM
- O=C1OC(=O)c2ccccc21 [Phthalic anhydride] — higher, > 90 µM
- CC(C)OB(OC(C)C)OC(C)C [Triisopropyl orthoborate] — higher, > 90 µM
- O=C1c2c(O)ccc(Nc3ccc(CCO)cc3)c2C(=O)c2c([N+](=O)[O-])ccc(O)c21 [C.I. Disperse Blue 27] — within 1.5-fold, 63.1 µM
- CC(Cl)C(=O)O (stereo not drawn) [2-Chloropropanoic acid] — higher, > 100 µM
- COC(=O)N(C(=O)N1CO[C@@]2(C(=O)OC)Cc3cc(Cl)ccc3C2=N1)c1ccc(OC(F)(F)F)cc1 [Indoxacarb] — higher, > 70 µM
- CCCC(CC)c1ccccc1 (stereo not drawn) [3-Phenylhexane] — higher, > 90 µM
- C=Cc1ccc(OC(C)=O)cc1 [4-Ethenylphenyl acetate] — higher, > 90 µM
- CO[Si](C)(OC)c1ccccc1 [Dimethoxy(methyl)phenylsilane] — higher, > 90 µM
- C/C=C(\C)C(=O)OCc1ccccc1 [Benzyl tiglate] — higher, > 90 µM
- CCO [Ethanol] — higher, > 100 µM
- N=c1nc(N2CCCCC2)cc(N)n1O [Minoxidil] — not separable, > 50 µM
- CCC(C)NC(N)=O (stereo not drawn) [sec-Butylurea] — higher, > 90 µM
- CC1CC(OC(=O)C(O)c2ccccc2)CC(C)(C)C1 (stereo not drawn) [Cyclandelate] — not separable, > 50 µM
- Cc1ccncc1 [4-Methylpyridine] — higher, > 100 µM
- CCOCC(C)O (stereo not drawn) [1-Ethoxy-2-propanol] — higher, > 90 µM
- Cc1cc(C)c(C2=C(OC(=O)CC(C)(C)C)C3(CCCC3)OC2=O)c(C)c1 [Spiromesifen] — higher, > 100 µM
- COCCCOc1ccnc(C[S+]([O-])c2nc3ccccc3[nH]2)c1C (stereo not drawn) [Rabeprazole sodium] — higher, > 90 µM
- CCN(CC)C1CCCCC1 [N,N-Diethylcyclohexylamine] — higher, > 90 µM
- O=C(Cl)C(Cl)(Cl)Cl [Trichloroacetyl chloride] — higher, > 90 µM
- Cc1ccc(N)cc1C [3,4-Dimethylaniline] — higher, > 90 µM
- N=C(N)n1cccn1 [Praxadine hydrochloride] — not separable, > 50 µM
- COc1ccc(NC(=O)CC(C)=O)cc1 [N-(4-Methoxyphenyl)-3-oxobutanamide] — higher, > 90 µM
- CCCCCCCCCCCCCCC1CO1 (stereo not drawn) [1,2-Epoxyhexadecane] — higher, > 90 µM
- N=C(N)NN [Aminoguanidine hydrochloride] — higher, > 90 µM
- NCCS [Cysteamine hydrochloride] — not separable, > 50 µM
- CN[C@H](CC(C)C)C(=O)N[C@H]1C(=O)N[C@@H](CC(N)=O)C(=O)N[C@H]2C(=O)N[C@H]3C(=O)N[C@H](C(=O)N[C@H](C(=O)O)c4cc(O)cc(O)c4-c4cc3ccc4O)[C@H](O)c3ccc(c(Cl)c3)Oc3cc2cc(c3O[C@@H]2O[C@H](CO)[C@@H](O)[C@H](O)[C@H]2O[C@H]2C[C@](C)(N)[C@H](O)[C@H](C)O2)Oc2ccc(cc2Cl)[C@H]1O [Vancomycin hydrochloride] — not separable, > 50 µM
- c1cc(CCCc2ccncc2)ccn1 [4,4'-Propane-1,3-diyldipyridine] — higher, > 90 µM
- CC(C)CCCCCCCOP(=O)(Oc1ccccc1)Oc1ccccc1 [Isodecyl diphenyl phosphate] — 2.3-fold lower, 27.3 µM
- O=C(CCCCC(=O)Nc1c(I)cc(I)c(C(=O)O)c1I)Nc1c(I)cc(I)c(C(=O)O)c1I [Iodipamide] — not separable, > 50 µM
- CCCN1C[C@H](CSC)C[C@@H]2c3cccc4[nH]cc(c34)C[C@H]21 [Pergolide methanesulfonate] — not separable, > 50 µM
- CC(C)[C@H](C(=O)O[C@H](C#N)c1cccc(Oc2ccccc2)c1)c1ccc(Cl)cc1 [Esfenvalerate] — higher, > 90 µM
- O=Cc1c2ccccc2c(Cl)c2ccccc12 [10-Chloro-9-anthraldehyde] — not separable, > 50 µM
- C=CCN1CC[C@]23c4c5ccc(O)c4O[C@H]2C(=O)CC[C@@]3(O)[C@H]1C5 [Naloxone] — not separable, > 50 µM
- CC(=O)O[C@]1(C(C)=O)CC[C@H]2[C@@H]3CCC4=CC(=O)CC[C@]4(C)[C@@]3(F)[C@@H](O)C[C@@]21C [Flurogestone acetate] — not separable, > 50 µM
- RKDVY [Thymopentin] — not separable, > 50 µM
- C[N+](C)(C)CC(O)CC(=O)[O-] (stereo not drawn) [Carnitine hydrochloride] — not separable, > 50 µM
- O=C(O)[C@H](O)c1ccccc1 [D-(-)-Mandelic acid] — not separable, > 50 µM
- CO[C@H]1C[C@@H]2CC[C@@H](C)[C@@](O)(O2)C(=O)C(=O)N2CCCC[C@H]2C(=O)O[C@H]([C@H](C)C[C@@H]2CC[C@@H](OC(=O)C(C)(CO)CO)[C@H](OC)C2)CC(=O)[C@H](C)/C=C(\C)[C@@H](O)[C@@H](OC)C(=O)[C@H](C)C[C@H](C)/C=C/C=C/C=C/1C [Temsirolimus] — not separable, > 50 µM
- N#Cc1ccccc1C#N [1,2-Benzenedicarbonitrile] — higher, > 70 µM
- Cc1cc(=O)n(-c2ccccc2)n1C [Phenazone] — not separable, > 50 µM
- COc1cc(C(C)=O)ccc1OCCCN1CCC(c2noc3cc(F)ccc23)CC1 [Iloperidone] — 4.1-fold lower, 15.2 µM
- Oc1ncnc2[nH]ncc12 [Allopurinol] — higher, > 90 µM
- C=CC(C)(CCC=C(C)C)OC(=O)C(C)C (stereo not drawn) [Linalyl isobutyrate] — higher, > 90 µM
- COc1cc(N)ccc1C [3-Methoxy-4-methylaniline] — higher, > 90 µM
- CC(C)(C)C1CCC(O)CC1 (stereo not drawn) [4-tert-Butylcyclohexanol] — higher, > 90 µM
- CC[N+](C)(CC)CC [N,N-Diethyl-N-methylethanaminium chloride] — higher, > 90 µM
- COc1ccc(C(=O)/N=c2\[nH]c3ccccc3c(NCc3ccccc3)c2C#N)cc1 [SSR161421] — higher, > 90 µM
- CCOC(=O)[C@@](C)(N)Cc1ccc(O)c(O)c1 [Methyldopate hydrochloride] — not separable, > 20 µM
- Cc1ccc(S(=O)(=O)NC(=O)NN2CCCCCC2)cc1 [Tolazamide] — higher, > 90 µM
- O=[N+]([O-])CCO [2-Nitroethanol] — higher, > 100 µM
- O=[N+]([O-])c1cccc(Cl)c1Cl [2,3-Dichloronitrobenzene] — higher, > 90 µM
- CCc1cc(OC)c(C[C@H](C)N)cc1OC [(+)-2,5-Dimethoxy-4-ethylamphetamine hydrochloride] — 1.7-fold lower, 35.7 µM
- CN1CCCN=C1COC(=O)C(O)(c1ccccc1)C1CCCCC1 (stereo not drawn) [Oxyphencyclimine hydrochloride] — not separable, > 50 µM
- OC[C@H]1O[C@@H](O[C@H]2[C@H](O)[C@@H](O)C(O)O[C@@H]2CO)[C@H](O)[C@@H](O)[C@@H]1O (stereo partly drawn) [Cellobiose] — not separable, > 50 µM
- O=[N+]([O-])c1ccc(CCO)cc1 [2-(4-Nitrophenyl)ethanol] — higher, > 90 µM
- CCCCCCCCC(CCCCCC)C(=O)O (stereo not drawn) [2-Hexyldecanoic acid] — higher, > 90 µM
- NC[C@H]1O[C@H](O[C@H]2[C@H](O)[C@@H](O[C@H]3O[C@H](CO)[C@@H](O)[C@H](N)[C@H]3O)[C@H](N)C[C@@H]2N)[C@H](N)C[C@@H]1O [Tobramycin] — not separable, > 20 µM
- CC1(C)S[C@@H]2[C@H](NC(=O)COc3ccccc3)C(=O)N2[C@H]1C(=O)O [Penicillin VK] — higher, > 90 µM
- Cc1ccc(/C(=C\CN2CCCC2)c2ccccn2)cc1 [Triprolidine hydrochloride monohydrate] — within 1.5-fold, 58.4 µM
- CC1(C)[C@H]2CC[C@]1(C)[C@H](O)C2 [[(1S)-endo]-(-)-Borneol] — higher, > 90 µM

Same assay, conditions: rat, gh3-tre-luc cells, AC50 (uM) modified / 1000, Tox21_110001=Tox21_111075; viability, 1 nM T3 present, 24 h

Molecule CC(C)NC(C)C [Diisopropylamine] has a CC50 at 24 h greater than 50 µM.

Same assay, conditions: rat, gh3-tre-luc cells, AC50 (uM) modified / 1000, Tox21_110001=Tox21_113080; viability, 1 nM T3 present, 24 h

Molecule COP(=S)(OC)Oc1ccc(S(N)(=O)=O)cc1 [Cythioate] has a CC50 at 24 h greater than 50 µM.

Same assay, conditions: rat, gh3-tre-luc cells, AC50 (uM) modified / 1000, Tox21_110001=Tox21_113540; viability, 1 nM T3 present, 24 h

Oc1ccc2c3c1O[C@H]1[C@@H](O)C=C[C@H]4[C@@H](C2)NCC[C@@]341 [Normorphine] showed a CC50 at 24 h greater than 50 µM.

Same assay, conditions: rat, gh3-tre-luc cells, AC50 (uM) modified / 1000, Tox21_110001=Tox21_200191; viability, 1 nM T3 present, 24 h

Work on CN(C)c1ccc(N)cc1 [N,N-Dimethyl-p-phenylenediamine] yielded a CC50 at 24 h of 59.3 µM.

Same assay, conditions: rat, gh3-tre-luc cells, AC50 (uM) modified / 1000, Tox21_110001=Tox21_200216; viability, 1 nM T3 present, 24 h

Work on CC(C)NC(C)C [Diisopropylamine] yielded a CC50 at 24 h greater than 90 µM.

Same assay, conditions: rat, gh3-tre-luc cells, AC50 (uM) modified / 1000, Tox21_110001=Tox21_200363; viability, 1 nM T3 present, 24 h

C=CC(C)=O [Methyl vinyl ketone] gave a CC50 at 24 h greater than 90 µM.

Same assay, conditions: rat, gh3-tre-luc cells, AC50 (uM) modified / 1000, Tox21_110001=Tox21_201140; viability, 1 nM T3 present, 24 h

For ClCCCCl [1,3-Dichloropropane], the CC50 at 24 h was greater than 100 µM.

Same assay, conditions: rat, gh3-tre-luc cells, AC50 (uM) modified / 1000, Tox21_110001=Tox21_201325; viability, 1 nM T3 present, 24 h

With O=c1[nH]c2ccccc2c(=O)o1 [2H-3,1-Benzoxazine-2,4(1H)-dione] the CC50 at 24 h was greater than 90 µM.

Same assay, conditions: rat, gh3-tre-luc cells, AC50 (uM) modified / 1000, Tox21_110001=Tox21_201548; viability, 1 nM T3 present, 24 h

For CN=C=S [Methyl isothiocyanate], the CC50 at 24 h was greater than 90 µM.

Same assay, conditions: rat, gh3-tre-luc cells, AC50 (uM) modified / 1000, Tox21_110001=Tox21_201946; viability, 1 nM T3 present, 24 h

CCOc1ccc(N)cc1 [4-Ethoxyaniline] showed a CC50 at 24 h greater than 90 µM.

Same assay, conditions: rat, gh3-tre-luc cells, AC50 (uM) modified / 1000, Tox21_110001=Tox21_300912; viability, 1 nM T3 present, 24 h

With CN=C=S [Methyl isothiocyanate] the CC50 at 24 h was greater than 200 µM.

Same assay, conditions: rat, gh3-tre-luc cells, AC50 (uM) modified / 1000, Tox21_110001=Tox21_301414; viability, 1 nM T3 present, 24 h

In the case of CCC(C)(C#N)N=NC(C)(C#N)CC (stereo not drawn) [2,2'-Azobis(2-methylbutanenitrile)], the CC50 at 24 h is reported as greater than 90 µM.

Same assay, conditions: rat, gh3-tre-luc cells, AC50 (uM) modified / 1000, Tox21_110001=Tox21_301748; viability, 1 nM T3 present, 24 h

In the case of CN(C)C(=O)Nc1cccc(OC(=O)NC(C)(C)C)c1 [Karbutilate], the CC50 at 24 h is reported as greater than 90 µM.
